Laboratory results reported in patent US20250319032A1, “PHARMACEUTICAL COMPOSITIONS OF RIBOCICLIB” (Novartis AG, priority 2024, published 2025).

Tests used:
[1] = Range-finding oral toxicity study of DMP433 (Labcorp Study Number 8526660); assay type: in vivo, mouse; conditions: both sexes, Muta™ Mouse, mouse, in vivo; oral, daily; read-out: maximum tolerated dose level (MTD)
Protocol: (§1) In a previously conducted range-finding study (Labcorp Study Number 8526660) DMP433 was dosed orally in groups of 6 males and 6 females at 500, 100 or 50 mg/kg/day daily for up to 14 days. […] Where clinical signs were seen, animals had recovered prior to dosing the following day. A single Day 1 (Subgroup 1) female satellite animal was removed from the study due to the severity of the clinical observations. […] Where clinical signs were seen, animals had recovered prior to dosing the following day. […] Therefore, dosing in males and females will be conducted.
(§2) Based on the toxicity and bioanalytical data generated under Labcorp Study Number 8526660, the maximum tolerated dose level (MTD) of 100 mg/kg/day* will be used as the high dose level. Two further doses of 50 and 25 mg/kg/day, will also be tested in males (OECD, 2022). As there is a crossover in exposure between males and females, vehicle controls and the MTD of 100 mg/kg/day only will be evaluated in females. • group 4 male animals given 80 mg/kg/day from Day 4 of dosing onwards due to mortality/morbidity.

Muta™ Mice = experiment: as above; assay type: in vivo, mouse
Protocol: as §1, §2

[2] = test system: lacZ transgene within the bone marrow, liver, kidney, and duodenum from treated Muta™ Mice; experiment: Transgenic gene mutation assay in Muta™ Mice (lacZ); assay type: in vivo, Muta™ Mouse CD2-lacZ80/HazfBR; conditions: oral gavage, 28 consecutive days, sampling day 31
Source text: A study is on-going, with the objective of evaluating the potential of DMP433 to induce gene mutations in the lacZ transgene within the bone marrow, liver, kidney, and duodenum from treated Muta™ Mice. The bone marrow and liver will be examined as these tissues are expected to be highly exposed to DMP433 upon oral gavage dosing and/or representative of organs with fast and slow dividing cells respectively. The duodenum will be assessed as a site of contact tissue following oral gavage dosing. The kidney will also be examined as a standard target organ for tumours for nitrosamines.
The animals used will be transgenic mouse of the strain Muta™ Mouse CD2-lacZ80/HazfBR (supplied by Charles River, UK). The animals will have an age range of approximately 8 to 12 weeks on the first day of dosing, and a weight range of approximately 18 to 35 g. […]
as §2, with “Two further doses of 50 and 25 mg/kg/day, will also be tested in males (OECD, 2022).” left out, “mortality/morbidity. […]” for “mortality/morbidity.”

[3] = Bioanalysis and toxicokinetic evaluation of DMP433 in mouse plasma and tissues; assay type: in vivo; conditions: 100 mg/kg/day, Day 14
Protocol: as §1
The blood samples will be processed. Determination of DMP433 in mouse plasma containing K2EDTA as an anticoagulant will be conducted by Labcorp Bioanalytical in accordance with Labcorp Policies, and all procedures will be conducted following method DMP4MPP validated under Labcorp study number 8527178.
Toxicokinetic parameters will be estimated using Phoenix® WinNonlin® version 8.1 or higher (Certara USA, Inc., Princeton, New Jersey). A non-compartmental approach consistent with the oral route of administration will be used for parameter estimation. […]
For determination of mean DMP433 concentrations, concentration values that are below the limit of quantitation will be treated as zero. […]
Bioanalytical data will be used as received for the toxicokinetic analysis. Toxicokinetic parameters will be calculated. […]

[4] = Stability of DMP433 dose formulations in vehicle; assay type: physicochemical; conditions: 0.5 and 50 mg/mL; 2 to 8° C. and 15 to 25° C., protected from light
Protocol: The vehicle control is 2.2 eq HCl 1.ON (˜40%)+28% as powder sulfobutylether-β-cyclodextrin (pH 2.0+0.5), with storage conditions in dispensary of 2 to 8° C. protected from light.
The test item formulation will be prepared daily, unless stability data supports less frequent preparation. The stability data will be generated under Labcorp Study Number 8528626. DMP433 formulations in vehicle at concentrations of 0.5 and 50 mg/mL have been confirmed as stable for up to 8 days at 2 to 8° C. and 15 to 25° C., both protected from light. The storage conditions in central dispensary will be 15 to 25° C. protected from light.
The formulation will be analysed (HPLC/UV analysis, Lapcorp method 8528626-01F, version in force on 22nd February 2024) to confirm that it achieves concentration and homogeneity. Samples (as shown in the following tables, where n/a means not applicable) will be taken from the main experiment during week 1 and week 4 and analysed accordingly.

CN(C)C(=O)c1cc2cnc(Nc3ccc(N4CCN(N=O)CC4)cn3)nc2n1C1CCCC1 [DMP433, 7-cyclopentyl-N,N-dimethyl-2-((5-(4-nitrosopiperazin-1-yl)pyridin-2-yl)amino)-7H-pyrrolo[2,3-d]pyrimidine-6-carboxamide]
MTD [1]: 100 mg/kg/day
bodyweight, Range-Finder 3 (Muta™ Mice; 50 mg/kg/day oral, 14 days): all animals except one (male M5209) had gained bodyweight
clinical signs, Range-Finder 3 (Muta™ Mice; 50 mg/kg/day oral, up to 14 days, Subgroup 2 animals): squinting, mild decreased activity and piloerection
bodyweight, Range-Finder 2 (Muta™ Mice; 100 mg/kg/day oral, 14 days): all animals gained bodyweight during the 14-day dosing period
clinical signs, Range-Finder 2 (Muta™ Mice; 100 mg/kg/day oral, up to 14 days, Subgroup 2 animals): squinting, partially closed eyes, fast respiration, mild hunched posture and piloerection
outcome of Range-Finder 1 (Muta™ Mice; 500 mg/kg/day oral, 6 males and 6 females): terminated on day 1 due to animal mortality/morbidity and convulsions
result of the gene mutation assay (capable of inducing mutation) [2]: positive
sex difference in bioanalytical data [3]: approximately 2 fold
time for which DMP433 formulations in vehicle are stable [4]: up to 8 days
